In article PMC12195740, “Discovery of Novel Imidazothiazole-Based Hydroxamic Acid Derivatives as Potent Indoleamine 2,3-Dioxygenase 1 and Histone Deacetylase 6 Dual Inhibitors” (Molecules, 2025):

Key:
MCF-7 cells = assay: Cell viability (MTT) assay, MCF-7; conditions: Homo sapiens, MCF7, 48 h, read-out: Antiproliferative IC50, MCF-7
Protocol: Section S 1.3 Cell viability assays
another 48 h. The cells were stained with 10 μl of MTT at incubator for approximately 4 h. The medium was discarded and replaced by 100 mL DMSO. The O.D. value was read at 570/630 nm with a spectrophotometer.

HCT-116 cells = assay: Cell cycle analysis (PI, flow cytometry); format: cell-based; conditions: 24 h, control 7.77%
Protocol: To assess the impact of compound 10e on the cell cycle, HCT-116 cells were treated with different concentrations of compound 10e (5 μM, 10 μM, and 20 μM) for 24 h, then stained with PI, and analyzed using flow cytometry.
Cell Bank at the Chinese Academy of Sciences. Hct-116, SW480, MDA-MB-231 and MCF-7 cell […]
FBS. DMEM and FBS were obtained from Gibco-Thermo (BRL Co. Ltd., USA). The plates were incubated at 37 °C in a humidified atmosphere of 5% CO2/95% air overnight. The cells were then […]
another 48 h. The cells were stained with 10 μl of MTT at incubator for approximately 4 h. The medium was discarded and replaced by […] DMSO. The O.D. value was read at 570/630 nm with a spectrophotometer.
Section S 1.4 Molecular docking
Molecular docking was carried out in Sybyl-X 2.1 on a Windows workstation. The crystal structure of IDO1 protein with inhibitor was retrieved from the RCSB Protein Data Bank (IDO1:
4PK5, HDAC6: 6THV). Firstly, the 3D structure of the selected compound was built with Sybyl-X 2.1 sketch followed by energy minimization with the MMFF94 force field and Gasteiger-Marsili charges. The Powell’s method was used to optimize the geometry with a distance dependent dielectric constant and a termination energy gradient of 0.005 kcal/mol. […]
with 75% cold ethanol at 4 °C overnight. […] The samples were measured using flow cytometry and analyzed by Flowjo software. […]
Total cell lysates from cultured HCT-116 cells after treatment with compound 10e as mentioned earlier were obtained by lysing the cells in ice-cold RIPA buffer with protease and phosphatase inhibitor and stored at -20°C for future use. The protein concentrations were quantified by the Bradford method (Bio-Rad) using a Multimode Varioscan instrument (Thermo Fischer Scientific).
Equal amounts of protein per lane were applied to 12% SDS polyacrylamide gel for electrophoresis and transferred to a polyvinylidene difluoride (PVDF) membrane (Amersham Biosciences). […] Membranes were washed with TBST three times for 15 min and the protein bands were detected with chemiluminescence reagent (Thermo Fischer Scientific). […]

IC50 (MCF-7 cells): 36.5 ± 5.45 µM
SMILES: O=C(CCCCCCNc1ccc(NC(=O)c2cnc3scc(-c4ccc(Br)cc4)n23)cc1)NO [Compound 10e, 3-(4-Bromophenyl)-N-{4-[(7-(hydroxyamino)-7-oxoheptyl)amino]phenyl}imidazo[2,1-b]thiazole-5-carboxamide]
cell population in G2/M phase (HCT-116 cells; HCT-116, 5 μM): 17.39%
cell population in G2/M phase (HCT-116 cells; HCT-116, 10 μM): 31.89%
cell population in G2/M phase (HCT-116 cells; HCT-116, 20 μM): 47.18%
